How the values were obtained:
[1] = test system: granulosa cells from mice at day 21 of age; experiment: cGMP and cAMP production by cultured granulosa cells; type: cell-based; details: day 21 mice, 2 h
Method: (§1) Stimulation of cGMP, but not cAMP, production by cultured ovarian somatic cells: Because the NPRB receptors mediated cGMP production stimulated by the CNP ligand, we isolated somatic cells from ovaries of mice at day 13 of age and granulosa cells from mice at day 21 of age before treatment with increasing doses of CNP or a high dose (30 nM) of ANP for 2 h. Media content of both cGMP and cAMP were determined by RIA.

[2] = test system: early antral follicles; experiment: In vivo treatment of prepubertal mice (day 21) with CNP followed by hCG, in vitro fertilization, mating
Method: To further test the ability of CNP to stimulate the development of early antral follicles to the preovulatory stage, prepubertal mice at day 21 days of age were treated i.p. with CNP daily for 4 days followed by a single injection of an ovulatory dose of hCG. At […] after hCG treatment, the number of ovulated mature oocytes were determined.
We further tested if ovulated oocytes retrieved after CNP pretreatment are capable of being fertilized. Oocytes were obtained from oviducts of CNP-pretreated prepubertal mice after hCG treatment and used for in vitro fertilization. We used oocytes obtained from prepubertal mice treated sequential with eCG (2 days) and hCG (16 h) as controls. […] Some prepubertal females pretreated with CNP followed by hCG to induce ovulation were mated with fertile males.
(§2) In vivo treatment with CNP, ovulation, and pregnancy: Infantile mice at day 13 of age were treated with CNP (20 ug/kg body weight) i.p. daily for 4 days. This was followed by a single injection of eCG (5 IU) for 2 days to stimulate penultimate follicle maturation before collection of ovaries for weighting and histological analyses. Some animals were further treated with an ovulatory dose (5 IU) of hCG and oocytes in oviducts were monitored at 16 h later to evaluate ovulation efficiency. To test the effects of CNP on early antral follicle growth, prepubertal mice at day 21 of age were treated intraperitoneally with CNP (50 ug/kg body weight) daily for four days to stimulate preovulatory follicle development, followed by the injection of an ovulatory dose (2.5 IU) of hCG. At 16 h later, number of ovulated oocytes was determined. Mature oocytes obtained from CNP-pretreated animals were used for in vitro fertilization. Sperm from CD1 male mice (10-12 weeks old) were collected into human tubal fluid media (Millipore) and incubated for 1 h at 37 C. Oocytes were fertilized with sperm (2-3×10^5/ml) for 6 h and inseminated oocytes were transfer into KSOM-AA medium (Millipore) to allow development into blastocysts. Some of the CNP-pretreated females were mated with fertile males for the monitoring of pregnancy and the delivery of pups.

[3] = test system: somatic cells from ovaries of mice at day 13 of age; experiment: cGMP and cAMP production by cultured somatic cells; type: cell-based; details: day 13 mice, 2 h
Method: as §1

[4] = short term infusion in humans, supraphysiological levels in plasma; cited from earlier work
[5] = test system: ovaries from day 10 mice; experiment: Ovarian explant cultures treated with CNP and/or FSH; type: cell-based; details: 4 days culture
Method: Ovarian explant cultures: Ovaries from day 10 mice were placed on culture plate inserts (Millipore, Bedford, Mass.) and cultured in 400 μl of DMEM/F12 containing 0.1% BSA (Sigma), 0.1% Albumax II, insulin-transferrin-selenium, 0.05 mg/ml L-ascorbic acid and penicillin-streptomycin under the membrane insert to cover ovaries with a thin layer of medium. […] Some explants were also treated with a pan-specific protein kinase G inhibitor, Rp-8-Br-PET-cGMPS (BioLog, Bremen, Germany). At the end of culture, ovaries were fixed in Bouin's solution, paraffin embedded, and cut into continuous sections before staining with hematoxylin and eosin.

[6] = test system: preantral follicles; experiment: Preantral follicle culture; type: cell-based, mice
Description: CNP treatment promoted the growth of preantral follicles and cultured ovarian explants: Preantral follicles (125-135 um in diameter) were isolated from ovaries of mice at day 13 of age and treated with different hormones for four days with daily monitoring of follicle diameters. […] In contrast, treatment with ANP was ineffective.
Dissection follicles of different sizes and culturing of preantral follicles: For RT-PCR analyses, early secondary follicles of 90-140 um in diameters were isolated from mice at day 13 of age whereas antral follicles (300-400 um in diameter) were isolated from prepubertal mice at day 23 of age. Preovulatory follicles (500-600 um in diameter) were isolated from prepubertal mice treated with eCG (5 IU). For follicle cultures, preantral follicles (125-145 um in diameter) were isolated from mice at day 13 of age and cultured individually in 96 well plates containing alpha-MEM (100 ul/well) with penicillin and streptomycin together with insulin, transferrin and selenium. […] The media were changed every two days and follicle growth was monitored daily by measuring follicle diameters.

[7] = test system: preantral follicles; experiment: In vivo treatment of juvenile mice (day 13) with CNP followed by eCG/hCG; details: day 13 mice
Method: In vivo treatment with CNP promoted follicle development for ovulation and subsequent pregnancy in juvenile, prepubertal, and adult mice: To test the ability CNP to stimulate preantral follicle development in vivo, juvenile mice at day 13 of age were treated i.p. with CNP daily for 4 days. This was followed by a single i.p. injection of eCG for 2 more days before determination of ovarian weight. […] Some of these animals were further treated with an ovulatory dose of hCG to check ovulation efficiency.
as §2

[8] = Observation of abnormalities after 4 days of CNP treatment; type: in vivo, mice; details: present dosages and injection protocols
Description: CNP acts exclusively through NPRB whereas ANP and BNP act through NPRA. […] The apparent lack of side effects using the present low doses of CNP is consistent with earlier reports showing minimal cardiac and renal actions using physiological concentrations of CNP.

[9] = test system: human ovarian cortical fragments; experiment: Xenografts of human ovarian cortical fragments; type: in vivo

CNP: 22 amino acid peptide cleaved from NPPC precursor; activates natriuretic peptide receptor-B (NPRB)
cAMP production [1]: no changes in cAMP production | Media content of cGMP ([1]; ANP 30 nM): dose-dependent increases in media content of cGMP | Number of ovulated oocytes induced by hCG vs saline ([2]; day 21 mice, 18 h after hCG): an increase in the number of ovulated oocytes | Ovarian weight ([2]; day 21 mice, i.p. 50 ug/kg daily for 4 days, then hCG): increased ovarian weight | Development of fertilized oocytes to the blastocyst stage vs control oocytes (eCG-hCG) ([2]; in vitro fertilization of oocytes of CNP-pretreated prepubertal mice): same efficiency | Pregnancy after mating with fertile males ([2]; prepubertal females pretreated with CNP followed by hCG): Successful pregnancy was demonstrated followed by the delivery of healthy pups | cAMP production [3]: no changes in cAMP production | Media content of cGMP ([3]; ANP 30 nM): dose-dependent increases in media content of cGMP | Vasodepressor or natriuretic action [4]: not vasodepressor or natriuretic | Development of preantral follicles (histological analyses) [5]: promoted the development of preantral follicles | Ovarian weights of explants, both CNP and FSH included ([5]; combined with FSH): additive increases | Ovarian weights of explants ([5]; day 10 ovaries): dose-dependent increases in ovarian weights | Follicle growth, combined treatment with CNP and FSH ([6]; FSH 25 ng/ml): additive increases in follicle growth | Follicle size compared with 8-bromo-cGMP ([6]; four days culture): comparable | Follicle size (diameter) ([6]; preantral follicles of day 13 mice, four days): dose- and time-dependent increases in follicle size | Ovulated oocytes in the oviducts vs controls ([7]; CNP, then eCG and hCG): higher numbers of ovulated oocyte | Increase in ovarian weight ([7]; i.p. 20 ug/kg daily for 4 days, then eCG 2 days): 56% | Development of antral follicles (histological analyses) ([7]; i.p. daily for 4 days, then eCG): increases in the development of antral follicles | Abnormalities following treatment [8]: did not observe abnormalities | Follicle growth as revealed by follicle counting [9]: stimulated follicle growth

Source: patent US10792311B2, “Stimulation of ovarian follicle development and oocyte maturation” (The Board of Trustees of the Leland Stanford Junior …, priority 2011, dated 2020)
